Experimental data reported in PMC10220285, “Development of an assay pipeline for the discovery of novel small molecule inhibitors of human glutathione peroxidases GPX1 and GPX4” (Redox Biology, 2023).
pIC50: −log10 of the molar value. Where two headings read alike, the source gives them in different places. Values belong to the compound of their own block, whether it stands above or below them.

Columns and labels:
GPX4 [1] = target: T1, GPX4 (Homo sapiens, UniProt P36969); experiment: GR-coupled GPX4 activity assay (NADPH fluorescence, CHP substrate); assay type: biochemical; settings: for pIC50: IC50 of resulting CRC, Table 2, read-out: IC50 GPx4
T1 construct: made in house; host or cells: E. coli
T1 sequence (P36969 1-170 isoform P36969-2): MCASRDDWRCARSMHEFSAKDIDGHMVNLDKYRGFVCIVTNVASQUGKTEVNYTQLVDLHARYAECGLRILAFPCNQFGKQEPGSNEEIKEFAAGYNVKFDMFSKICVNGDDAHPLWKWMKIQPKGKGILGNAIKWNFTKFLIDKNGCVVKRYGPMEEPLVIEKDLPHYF
Description: (§1) The compound plates were prepared as described previously. Purified recombinant human GPX1, GPX2, GPX4, GR, and TXNRD1 were produced and purified as previously reported [[48], [49], [50]]. As production of GPX2 was not optimized at the onset of screening, only GPX1 and GPX4 underwent library screening, and GPX2 was used as a follow-up.
(§2) Follow-up and orthogonal assays were run in quadruplicate unless otherwise stated. Assay schemes are illustrated in Fig. 1.
(§3) To measure GPX activity, assays were performed in 1536-well format in black medium-binding solid-bottom plates (Greiner). These assay conditions were optimized for high-throughput screening from an assay first described by Paglia and Valentine. GPX activity is measured indirectly by coupling the reaction with GR whereby GPX reduces hydroperoxide by oxidizing two GSH to GSSG and the oxidized glutathione is recycled to its reduced state by GR and NADPH (Fig. 1B). The rate of consumption of NADPH is directly proportional to the activity of GPX and can be measured by the decrease in fluorescence at 340 nm/450 nm.
(§4) First, 3 μL of enzyme in TES assay buffer (50 mM Tris-HCl, 2 mM EDTA (pH 7.5), 150 mM NaCl with enzyme [10 nM GPX1, 200 nM GPX4 ] and BSA [0.01%]) was added to columns 3–48 of 1536-well plates using a BioRAPTR Flying Reagent Dispenser (Let's Go Robotics (LGR), Carlsbad, CA). A no-enzyme control (0.01% BSA in TES assay buffer) was added to columns 1–2. Compounds (25 nL, library and DMSO controls) were added to each well with a pin tool (Kalypsys), and the plates were incubated for 30 min at room temperature before 1 μL of master mix (100 nM GR, 1 mM GSH, 0.5 mM NADPH in TES buffer) was added. 1 μL of cumene hydroperoxide (CHP) ([0.5 mM] in 50% EtOH) was then added within 5 min to initiate the reaction. Fluorescence at 340/450 nm was measured using a ViewLux multimodal detector (PerkinElmer, Waltham, MA) at initial t = 0 and endpoint t = 15 min (GPX1) or t = 20 min (GPX4).
(§5) Follow-up confirmation assays were also run in 96-well format using medium binding clear 96-well SpectraPlate microplates (PerkinElmer) and NADPH absorbance at 340 nm was measured every 30 s for 30 min using an Infinite® M Nano (Tecan).
(§6) Percent activity was determined by first calculating delta RFU (decrease in fluorescence between t = 0 and t = 20/30 min in primary GPX, GR counter-screen, and TXNRD1 assays, or increase in fluorescence between t = 0 and t = 20 min in the Monobromobimane GPX endpoint assay), and normalizing enzyme activity using median delta RFU values for DMSO-treated enzyme control, and DMSO-treated no-enzyme controls.
(§7) Compound inhibitory activity in the qHTS assays was determined by plotting dose-response data for each sample and fitting with a four-parameter logistic fit to assess IC50 values, efficacy (maximal response), and AUC (area under the curve), as previously described. Hits were classified by the quality of the concentration-response curves (CRC). Curve classes −1.1 and −1.2 being the highest-confidence actives with complete CRCs and classes −2.1 and −2.2 being lower-confidence actives with incomplete CRCs.

GPX1 [2] = target: T2, GPX1 (Homo sapiens, UniProt P07203); experiment: GR-coupled GPX1 activity assay (NADPH fluorescence, CHP substrate); assay type: biochemical
T2 construct: made in house; host or cells: E. coli
T2 sequence (P07203 1-203): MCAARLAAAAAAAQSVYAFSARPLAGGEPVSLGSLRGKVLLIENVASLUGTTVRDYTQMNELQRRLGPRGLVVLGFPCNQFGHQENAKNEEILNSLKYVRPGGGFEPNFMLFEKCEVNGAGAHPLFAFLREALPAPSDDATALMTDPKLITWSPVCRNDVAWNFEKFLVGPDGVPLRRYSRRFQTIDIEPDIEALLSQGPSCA
Description: as §1, §2, §3, §4, §5, §6, §7

GPX4 [3] = target: T1, GPX4; experiment: nanoDSF thermal stabilization, GPX4; assay type: binding; settings: first or only inflection point; for GSH Binding (ΔTm) GPx4; shift in nanoDSF melting temperature: 100 μM small molecule vs DMSO control; for Tm GPX4 (nanoDSF): 100 μM, DMSO control Tm 48.2°C
Description: (§8) Thermal stabilization of enzyme ± DMSO or ± compound was carried out in a Prometheus NT.48 instrument (NanoTemper Technologies) with an excitation wavelength of 280 nm. Intrinsic fluorescence at 330 nm and 350 nm was monitored while heating. Capillaries were filled with ∼10 μL of a solution of GPX1/4 (1 mg/mL), ± small molecule (100 μM) or DMSO, in TES buffer and placed into the instrument. The capillaries were subjected to a temperature range from 30 to 90 °C at a ramp rate of 2 °C/min. The ratio of the recorded emission intensities (350nm/330 nm) were plotted as a function of temperature. This ratio and first derivatives were calculated using the NanoTemper software and were plotted using GraphPad Prism.

GPX1 [4] = target: T2, GPX1; experiment: nanoDSF thermal stabilization, GPX1; assay type: binding; settings: for GSH Binding (ΔTm) GPx1; shift in nanoDSF melting temperature: 100 μM small molecule vs DMSO control; for GSH Binding (ΔTm) GPx1; shift in nanoDSF melting temperature / Tm GPX1 (nanoDSF): first or only inflection point; for Tm GPX1 (nanoDSF): 100 μM, DMSO control Tm 42.5°C
Description: as §8

human GPX2 = target: T3, human GPX2 (Homo sapiens, UniProt P18283); experiment: GPX2 activity assay (follow-up isoform specificity); assay type: biochemical; settings: IC50 of resulting CRC, Table 2
T3 construct: made in house
T3 sequence (P18283 1-190): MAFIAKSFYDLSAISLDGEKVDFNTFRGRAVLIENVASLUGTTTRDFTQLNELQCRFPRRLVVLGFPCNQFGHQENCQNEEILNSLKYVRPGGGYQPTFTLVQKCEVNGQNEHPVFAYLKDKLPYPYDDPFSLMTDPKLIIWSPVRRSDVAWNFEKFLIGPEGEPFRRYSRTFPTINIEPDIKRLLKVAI
Description: as §1, §2
Previous work has shown similarities in the substrate specificities of GPX1 and GPX2, and a more unique substrate profile of GPX4 [8].
The GPX2 isoform of human selenoprotein GPXs is found in epithelial cells and has similar substrate specificity with GPX1, but not as much with GPX4 [8]. Additionally, GPX1 and GPX2 both form homotetramers and share similarities in structural homology, although GPX2 has a much slower turnover rate.

Structure (SMILES): OC[C@H]1O[C@H]([S-])[C@H](O)[C@@H](O)[C@@H]1O.[Au+] [aurothioglucose]
GPX1 activity remaining at the top dose, primary library screen (GPX1 [2]; top dose, qHTS (not shown)): 49%

Structure (SMILES): CC1(C)CCC(c2ccc(Cl)cc2)=C(CN2CCN(c3ccc(C(=O)NS(=O)(=O)c4ccc(N[C@H](CCN5CCOCC5)CSc5ccccc5)c(S(=O)(=O)C(F)(F)F)c4)cc3)CC2)C1 [Navitoclax (ABT-263), Navitoclax]
pIC50 (GPX4 [1]): 4.94 | GSH Binding (ΔTm) GPx4; shift in nanoDSF melting temperature (GPX4 [3]): +3.2 °C | Tm GPX4 (nanoDSF) (GPX4 [3]): 51.4 °C

Structure (SMILES): Nc1nc(/C(=C/CC(=O)O)C(=O)N[C@@H]2C(=O)N3C(C(=O)O)=CCS[C@H]23)cs1 [Ceftibuten]
GSH Binding (ΔTm) GPx1; shift in nanoDSF melting temperature (GPX1 [4]): -0.2 °C | Tm GPX1 (nanoDSF) (GPX1 [4]): 42.3 °C | thermal stabilization of GPX1 (GPX1 [4]; nanoDSF): did not show any thermal stabilization | pIC50 (GPX1 [2]; IC50 of resulting CRC, Table 2, read-out: IC50 GPx1): 4.73 | pIC50 (human GPX2): 5.00

Structure (SMILES): [Cl][Hg][Cl] [mercuric chloride, mercuric(II) chloride]
pIC50 (GPX1 [2]; assay validation, Fig. 2E, read-out: IC50, prior art GPX1 inhibitor activities in optimized assay): 5.23

Structure (SMILES): N[C@@H](CCC(=O)N[C@@H](CS)C(=O)NCC(=O)O)C(=O)O [Glutathione]
GSH Binding (ΔTm) GPx1; shift in nanoDSF melting temperature (GPX1 [4]): +3.6 °C | Tm GPX1 (nanoDSF) (GPX1 [4]): 46.1 °C | GSH Binding (ΔTm) GPx4; shift in nanoDSF melting temperature (GPX4 [3]): +4.7 °C | Tm GPX4 (nanoDSF) (GPX4 [3]): 52.9 °C

Structure (SMILES): CC/C(=C(/c1ccc(/C=C/C(=O)O)cc1)c1ccc2[nH]ncc2c1)c1ccc(F)cc1Cl [Brilanestrant (GDC-0810), Brilanestrant]
pIC50 (GPX4 [1]): 5.17

Structure (SMILES): CCOc1nc2cccc(C(=O)OC(C)OC(=O)OC3CCCCC3)c2n1Cc1ccc(-c2ccccc2-c2nnn[nH]2)cc1 (stereo not drawn) [Candesartan Cilexetil]
pIC50 (GPX4 [1]): 5.00

Structure (SMILES): CCCCCCO[C@@H](C)c1cccc(-c2csc(NC(=O)c3cc(Cl)c(/C=C(\C)C(=O)O)c(Cl)c3)n2)c1OC [Lusutrombopag]
pIC50 (GPX4 [1]): 5.27 | GSH Binding (ΔTm) GPx4; shift in nanoDSF melting temperature (GPX4 [3]): +4.1 °C | Tm GPX4 (nanoDSF) (GPX4 [3]): 52.3 °C

More lines, main results first:

hit status in GPX4 qHTS (GPX4 [1]; primary library screen): not active hits in either screen | hit status in GPX1 qHTS (GPX1 [2]; primary library screen): not active hits in either screen
Structure (SMILES): Cc1onc(C(=O)N2CCN(C(c3ccc(Cl)cc3)c3ccc(Cl)cc3)CC2)c1[N+](=O)[O-] [ML210]
inhibitory activity in the GPX4 biochemical assay (GPX4 [1]; assay validation, Fig. 3E): No previously reported GPX4-targeting compounds (RSL3, ML162, ML210) showed inhibitory activity

pIC50 (GPX4 [1]): 4.97
Structure (SMILES): O=C(O)Cc1cccc(OCCCN(Cc2cccc(C(F)(F)F)c2Cl)CC(c2ccccc2)c2ccccc2)c1 [GSK-3965]

pIC50 (GPX4 [1]): 5.17
Structure (SMILES): Cc1c(C)n(Cc2ccc(-c3ccccc3C(=O)O)cc2)c2ccc(C(=O)N[C@@H](C)c3ccc([N+](=O)[O-])cc3)cc12 [SR-1664]
